Molecules are shown by their SMILES.

In this assay the test system is gastric acid secretion. Description: Inhibitory activity on gastric acid secretion, Shay Method (pylorus-ligated rats). In kind it is in vivo, male Wistar rats. The note with it: Rattus norvegicus, 2 h, i.d. route, rats, Shay Method, two hours after pylorus ligature; for ED50: read-out: ED50 (inhibition of gastric acid secretion); for inhibition in vivo at 40 mg/kg: intraduodenal, read-out: Percentage of inhibition of gastric acid secretion. An excerpt: Inhibitory activity on gastric acid secretion, Shay Method [Shay, H., Komarov, S. A., Fels, S. S., Merange, D., Grvenstein, M., Siplet, H.: Gastroenterology, 5, 43 (1945)--Visscher, F. E., Seay, P. H., Taxelaar, A. P., Veldhamp, W., Vander Brook, M. J.: J. Pharmac. Exp. Ther., 110, 188 (1954)--"Animal Experiments in Pharmacological Analysis", F. R. Domer; C. C. Thomas Pub, Springfield, Ill., USA, 1970, p. 140].
In this test, male Wistar rats weighing 200 to 250 grams are used, which rats are denied food from the day prior to that of the test, with free access to water. Batches which each contain at least 4 animals are used.
The rats are anesthetized with ethyl ether, a laparotomy is carried out on them and their pylori are ligatured, and then the abdominal incision is stitched up. Administration of the products, with the vehicle for the control batch, is carried out intraduodenally (i.d.) before stitching up the abdominal incision. The dose administered for the first test is 40 mg/kg and the 50% effective dose (ED50) by the i.d. route is also determined in a second test. The vehicle used is 5% w/v gum arabic in doubly-distilled water.
Two hours after ligaturing the pylorus, the rats are sacrificed by prolonged anesthesia with ethyl ether and the volume of the gastric juice is measured and the total acidity is determined using a pH meter equipped with an automatic burette. The percentage of inhibition of the gastric acid secretion is determined, with respect to the control batch, for each product and for each dose tested.
The results obtained for some of the derivatives of the present invention are summarized, as non-limiting examples, in Table II.

With `Cc1nc(Cl)c(Cl)n1CCCCN1CCN(c2ccccc2C#N)CC1` [Example 73], the ED50 was 4.2 mg/kg and the inhibition in vivo at 40 mg/kg turned out to be 90%.
Consider `Cc1nc(Cl)c(Cl)n1CCCCN1CCN(c2ccccc2F)CC1` [Example 74], for which the ED50 is 5 mg/kg and the inhibition in vivo at 40 mg/kg stood at 94%.
On the same counts, the results for `N#Cc1ccccc1N1CCN(CCCCn2cc(Cl)cn2)CC1` [Example 75] are 8.4 mg/kg and 94%.
In the same order, the values of `Cc1nc(Cl)c(Cl)n1CCCCN1CCN(c2cccc(C(F)(F)F)c2)CC1` [Example 76] are 2.1 mg/kg and 96%.
`FC(F)(F)c1cccc(N2CCN(CCCCn3cc(Cl)cn3)CC2)c1` [Example 77]: the 50% effective dose (ED50) was 9.2 mg/kg and the inhibition in vivo at 40 mg/kg was found to be 82%.
For `Fc1ccccc1N1CCN(CCCCn2cc(Cl)cn2)CC1` [Example 78], the ED50 stood at 10 mg/kg and the inhibition in vivo at 40 mg/kg is 87%.
In the same order, the values of `Clc1cnn(CCCCN2CCN(c3nsc4ccccc34)CC2)c1` [Example 79] are 20 mg/kg and 82%.
As to `Cc1nc(Cl)c(Cl)n1CCCCN1CCN(c2nsc3ccccc23)CC1` [Example 80], the ED50 came to 7.1 mg/kg and the inhibition in vivo at 40 mg/kg worked out at 88%.
On the same counts, the results for `c1ccc2c(N3CCN(CCCCn4cncn4)CC3)nsc2c1` [Example 81] are 5.2 mg/kg and 82%.
In the same order, the values of `c1ccc2c(c1)ncn2CCCCN1CCN(c2nsc3ccccc23)CC1` [Example 82] are 15 mg/kg and 53%.

Source of the values: patent US5532234A, “Use of 1-[4-[4-aryl (or heteroaryl)-1-piperazinyl]-butyl)-1H-azole derivatives for the preparation of medicaments intended for the treatment of disorders of gastric secretion” (Laboratories Del Dr. Esteve, S.A., priority 1993, dated 1996).
